Laboratory results reported in patent US12077503B2, “Substituted cyclic amides and their use as herbicides” (FMC CORPORATION, priority 2015, dated 2024).

Assays:
Type in all cases: in vivo
Kochia (Kochia scoparia) [1] = assay: Test A preemergence; settings: Bassia scoparia, pre-emergence, 240 h, read-out: Plant response rating, Kochia
How it was run: (§1)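 Seeded soil received test chemicals as a preemergence directed spray, and seedlings at one to two leaves, 2–10 cm tall, received them postemergence, in a non-phytotoxic, surfactant-containing solvent mixture. Pots were held in a greenhouse for approximately 10 d, then rated for injury from 0, no effect, to 100, complete control.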

[2] = tested on: Galium (catchweed bedstraw, Galium aparine); assay: Test A postemergence; settings: Galium, post-emergence, 240 h, read-out: Plant response rating, Galium
How it was run: as §1

Kochia (Kochia scoparia) [3] = assay: Test A postemergence; settings: Bassia scoparia, post-emergence, 240 h, read-out: Plant response rating, Kochia
How it was run: as §1

[4] = tested on: barnyardgrass (Echinochloa crus-galli); assay: Test A postemergence; settings: Echinochloa crus-galli, post-emergence, 240 h, read-out: Plant response rating, Barnyardgrass
How it was run: as §1

[5] = tested on: blackgrass (Alopecurus myosuroides); assay: Test A postemergence; settings: Alopecurus myosuroides, post-emergence, 240 h, read-out: Plant response rating, Blackgrass
How it was run: as §1

corn (Zea mays) = assay: Test A postemergence; settings: Zea mays, post-emergence, 240 h
How it was run: as §1

[6] = tested on: giant foxtail (Setaria faberii); assay: Test A postemergence; settings: Setaria faberi, post-emergence, 240 h, read-out: Plant response rating, Foxtail, Giant
How it was run: as §1

[7] = tested on: pigweed (Amaranthus retroflexus); assay: Test A postemergence; settings: Amaranthus retroflexus, post-emergence, 240 h, read-out: Plant response rating, Pigweed
How it was run: as §1

[8] = tested on: ragweed (common ragweed, Ambrosia elatior); assay: Test A postemergence; settings: Ambrosia artemisiifolia, post-emergence, 240 h, read-out: Plant response rating, Ragweed
How it was run: as §1

[9] = tested on: ryegrass, Italian (Italian ryegrass, Lolium multiflorum); assay: Test A postemergence; settings: Lolium multiflorum, post-emergence, 240 h, read-out: Plant response rating, Ryegrass, Italian
How it was run: as §1

[10] = tested on: wheat (Triticum aestivum); assay: Test A postemergence; settings: Triticum aestivum, post-emergence, 240 h, Postemergence, 31 g ai/ha; visual injury after approx. 10 d; 0 to 100 scale, 0 no effect, 100 complete control; read-out: Plant response rating, Wheat
How it was run: as §1

[11] = tested on: barnyardgrass (Echinochloa crus-galli); assay: Test B flooded paddy test; settings: Echinochloa crus-galli, Flood, 250 g ai/ha; scale of 0 to 100 where 0 is no effect and 100 is complete control; read-out: Barnyardgrass plant response rating
How it was run: (§2)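 Flooding to 3 cm over soil accompanied treatment, which consisted of adding compound to the standing water around 2-leaf plants; depth was then maintained. Visual assessment versus controls followed at 13 to 15 d (scale 0–100, 0 meaning no effect).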

[12] = tested on: ducksalad (Heteranthera limosa); assay: Test B flooded paddy test; settings: Heteranthera limosa, Flood, 250 g ai/ha; scale of 0 to 100 where 0 is no effect and 100 is complete control; read-out: Ducksalad plant response rating
How it was run: as §2

rice (Oryra sativa) = assay: Test B flooded paddy test; settings: Oryza sativa, Flood, 250 g ai/ha; scale of 0 to 100 where 0 is no effect and 100 is complete control; read-out: Rice plant response rating
How it was run: as §2

[13] = tested on: sedge, umbrella (small-flower umbrella sedge, Cyperus difformis); assay: Test B flooded paddy test; settings: Cyperus difformis, Flood, 250 g ai/ha; scale of 0 to 100 where 0 is no effect and 100 is complete control; read-out: Sedge, Umbrella plant response rating
How it was run: as §2

[14] = 125 g ai/ha, postemergence, visual injury after approximately 10 d, 0 to 100 scale (0 no effect, 100 complete control)
[15] = Postemergence, 31 g ai/ha, visual injury after approx. 10 d, 0 to 100 scale, 0 no effect, 100 complete control

C/C=C/C1CNC(=O)C1C(=O)Nc1ccccc1F (stereo not shown) [Compound 792]
0%: pest or weed control at 125 g/ha (Kochia (Kochia scoparia) [1]; 125 g ai/ha, preemergence, visual rating after approx. 10 d, 0 to 100 scale where 0 is no effect and 100 is complete control) | pest or weed control at 31 g/ha (Kochia (Kochia scoparia) [1]; Preemergence, 31 g ai/ha, 0 to 100 scale (0 no effect, 100 complete control)) | pest or weed control at 125 g/ha [2, 14] | pest or weed control at 31 g/ha [2, 15] | pest or weed control at 125 g/ha (Kochia (Kochia scoparia) [3]; [14]) | pest or weed control at 31 g/ha (Kochia (Kochia scoparia) [3]; [15]) | pest or weed control at 125 g/ha [4, 14] | pest or weed control at 31 g/ha [4, 15] | pest or weed control at 125 g/ha [5, 14] | pest or weed control at 31 g/ha [5, 15] | Corn plant response rating (crop injury, 0 = no effect, 100 = complete kill) at 125 g/ha (corn (Zea mays); [14]) | Corn plant response rating (crop injury, 0 = no effect, 100 = complete kill) at 31 g/ha (corn (Zea mays); [15]) | pest or weed control at 125 g/ha [6, 14] | pest or weed control at 31 g/ha [6, 15] | pest or weed control at 125 g/ha [7, 14] | pest or weed control at 31 g/ha [7, 15] | pest or weed control at 125 g/ha [8, 14] | pest or weed control at 31 g/ha [8, 15] | pest or weed control at 125 g/ha [9, 14] | pest or weed control at 31 g/ha [9, 15] | plant injury at 31 g/ha [10] | pest or weed control at 250 g/ha [11] | pest or weed control at 250 g/ha [12] | pest or weed control at 250 g/ha (rice (Oryra sativa)) | pest or weed control at 250 g/ha [13]
